Blank lines part the entries; values can stand above or below the compound they belong to. Peptide text beside a SMILES is read from it.
How the values were obtained:
DppA = molecular target: T1, DppA (Escherichia coli, UniProt P23847); assay: isothermal titration calorimetry; type: binding; conditions: read-out: affinity
T1 construct: soluble periplasmic protein, His-tagged, Ni-NTA with guanidine wash to remove endogenous peptides; expressed in E. coli
T1 sequence (P23847 29-535): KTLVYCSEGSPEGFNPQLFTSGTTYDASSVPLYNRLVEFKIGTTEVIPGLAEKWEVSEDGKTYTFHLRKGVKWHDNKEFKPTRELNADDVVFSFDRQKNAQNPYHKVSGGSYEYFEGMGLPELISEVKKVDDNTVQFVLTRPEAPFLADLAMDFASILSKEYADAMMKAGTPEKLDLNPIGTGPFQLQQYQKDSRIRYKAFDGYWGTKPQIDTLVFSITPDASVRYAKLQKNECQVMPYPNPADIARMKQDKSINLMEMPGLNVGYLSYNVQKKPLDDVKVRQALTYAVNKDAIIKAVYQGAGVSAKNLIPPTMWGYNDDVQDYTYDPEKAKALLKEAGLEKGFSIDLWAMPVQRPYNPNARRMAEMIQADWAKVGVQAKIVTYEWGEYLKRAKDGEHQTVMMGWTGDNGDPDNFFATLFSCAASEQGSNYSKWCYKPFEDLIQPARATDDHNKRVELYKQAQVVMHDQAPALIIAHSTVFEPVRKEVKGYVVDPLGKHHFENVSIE

[1] = test system: T2, DppABCDF full transporter; assay: malachite green phosphate ATPase assay, nanodiscs; type: biochemical, Escherichia coli; conditions: DppA added, Mg2+, pH 7.5, 37 °C; with or without Ala-Ala
T2 construct: gene dppD; heteropentamer; structure: DppA C-terminal His-tag and Strep tag, GDN; ATPase: DppBCDF in MSP1E3D1/POPG nanodiscs plus separately purified DppA; Dipeptide transport system permease protein DppB; Dipeptide transport system permease protein DppC

[2] = molecular target: T3, DppABCDF full transporter (Escherichia coli, UniProt P0AAG0+P37313, P0AAG0:E179Q/P37313:E187Q); assay: cryo-EM structure of the complex ([…] Å); type: binding; conditions: 2 mM ATPγS, 2 mM MgCl2, on ice; outward-facing; two molecules at the DppD-DppF interface
T3 construct: gene dppD; heteropentamer; structure: DppA C-terminal His-tag and Strep tag, GDN; ATPase: DppBCDF in MSP1E3D1/POPG nanodiscs plus separately purified DppA; Dipeptide transport system permease protein DppB; Dipeptide transport system permease protein DppC

[3] = molecular target: T4, DppBCDF translocator (cluster site of DppD) (Escherichia coli, UniProt P0AAG0); assay: cryo-EM structure of the complex ([…] Å); type: binding; conditions: cluster in DppD, ligands Cys284, Cys290, Cys297, Cys315; 2 mM DTT
T4 construct: same complex as P2: heterotetramer, C-terminal Strep-tag II, expressed in E. coli, GDN detergent; with Dipeptide transport system permease protein DppB; Dipeptide transport system permease protein DppC

[4] = molecular target: T5, DppBCDF translocator (nucleotide and cluster site of DppF) (Escherichia coli, UniProt P37313); assay: cryo-EM structure of the complex ([…] Å); type: binding; conditions: cluster in DppF, ligands Cys293, Cys299, Cys306, Cys323; 2 mM DTT
T5 construct: heterotetramer, C-terminal Strep-tag II, expressed in E. coli, DDM then GDN detergent; with Dipeptide transport system permease protein DppB; Dipeptide transport system permease protein DppC
T5 sequence (P37313 whole entry): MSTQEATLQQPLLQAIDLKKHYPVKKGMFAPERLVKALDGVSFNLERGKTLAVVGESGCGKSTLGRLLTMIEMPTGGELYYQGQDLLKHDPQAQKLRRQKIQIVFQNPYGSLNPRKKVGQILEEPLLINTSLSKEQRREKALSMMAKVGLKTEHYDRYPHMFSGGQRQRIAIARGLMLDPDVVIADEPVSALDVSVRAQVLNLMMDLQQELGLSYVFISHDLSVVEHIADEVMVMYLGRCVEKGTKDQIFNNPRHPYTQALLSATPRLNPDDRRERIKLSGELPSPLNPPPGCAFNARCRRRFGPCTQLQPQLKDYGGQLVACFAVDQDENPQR
T5 sequence (P0AEF8 whole entry partner): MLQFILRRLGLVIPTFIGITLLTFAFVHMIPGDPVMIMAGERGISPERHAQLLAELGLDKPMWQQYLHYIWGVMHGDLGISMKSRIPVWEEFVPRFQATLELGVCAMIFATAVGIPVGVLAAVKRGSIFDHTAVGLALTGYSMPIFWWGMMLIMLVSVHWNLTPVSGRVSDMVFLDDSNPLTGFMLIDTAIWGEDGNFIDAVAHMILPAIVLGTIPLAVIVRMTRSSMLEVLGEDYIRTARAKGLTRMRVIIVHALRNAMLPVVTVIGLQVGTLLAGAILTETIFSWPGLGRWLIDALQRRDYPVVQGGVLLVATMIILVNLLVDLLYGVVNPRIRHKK
T5 sequence (P0AEG1 whole entry partner): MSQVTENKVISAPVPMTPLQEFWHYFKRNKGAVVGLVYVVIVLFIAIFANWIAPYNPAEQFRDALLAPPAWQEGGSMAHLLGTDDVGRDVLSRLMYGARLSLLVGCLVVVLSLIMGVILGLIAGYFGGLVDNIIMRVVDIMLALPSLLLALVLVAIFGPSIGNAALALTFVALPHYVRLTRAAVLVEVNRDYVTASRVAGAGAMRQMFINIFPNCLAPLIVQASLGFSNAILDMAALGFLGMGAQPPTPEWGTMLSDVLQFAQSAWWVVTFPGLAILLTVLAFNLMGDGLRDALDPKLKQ
T5 sequence (P0AAG0 whole entry partner): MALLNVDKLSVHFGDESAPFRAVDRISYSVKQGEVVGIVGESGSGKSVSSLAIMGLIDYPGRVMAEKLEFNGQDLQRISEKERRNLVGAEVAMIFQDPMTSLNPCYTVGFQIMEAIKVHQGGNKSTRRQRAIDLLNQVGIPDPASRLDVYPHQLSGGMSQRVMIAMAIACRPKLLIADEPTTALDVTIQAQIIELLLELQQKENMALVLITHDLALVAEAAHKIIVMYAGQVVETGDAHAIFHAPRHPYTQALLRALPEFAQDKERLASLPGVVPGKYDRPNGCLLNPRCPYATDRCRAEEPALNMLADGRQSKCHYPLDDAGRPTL

T3 sequence (P0AAG0 whole entry E179Q, one chain of several): as the sequence (P0AAG0 whole entry partner) above, with E179Q counted along it
T3 sequence (P37313 whole entry E187Q, one chain of several): as the sequence (P37313 whole entry) above, with E187Q counted along it
T3 sequence (P0AEF8 whole entry partner, one chain of several): as the sequence (P0AEF8 whole entry partner) above
T3 sequence (P0AEG1 whole entry partner, one chain of several): as the sequence (P0AEG1 whole entry partner) above
T2 sequence (P0AAG0 whole entry, one chain of several): as the sequence (P0AAG0 whole entry partner) above
T2 sequence (P0AEF8 whole entry, one chain of several, further chain): as the sequence (P0AEF8 whole entry partner) above
T2 sequence (P0AEG1 whole entry, one chain of several, further chain): as the sequence (P0AEG1 whole entry partner) above
T2 sequence (P37313 whole entry, one chain of several, further chain): as the sequence (P37313 whole entry) above
T4 sequence (P0AAG0 whole entry): as the sequence (P0AAG0 whole entry partner) above
T4 sequence (P0AEF8 whole entry partner): as the sequence (P0AEF8 whole entry partner) above
T4 sequence (P0AEG1 whole entry partner): as the sequence (P0AEG1 whole entry partner) above
T4 sequence (P37313 whole entry partner): as the sequence (P37313 whole entry) above

Kd (DppA): ~13.9 nM
Structure (SMILES): C[C@H](N)C(=O)N[C@@H](C)C(=O)O [AA, Ala-Ala] (H-Ala-Ala-OH)

Structure (SMILES): Nc1ncnc2c1ncn2[C@@H]1O[C@H](COP(=O)(O)OP(=O)(O)OP(=O)(O)O)[C@@H](O)[C@H]1O [ATP]
ATPase activity [1]: high ATPase activity is observed when DppA was supplied in the assay

Structure (SMILES): Nc1ncnc2c1ncn2[C@@H]1O[C@H](COP(=O)(O)OP(=O)(O)OP(O)(O)=S)[C@@H](O)[C@H]1O [ATPγS]
cryo-EM structure of the complex (2.73 Å) [2]: two ATPγS molecules bound at the interface of the two NBDs

Kd (DppA): ~2200 nM
Structure (SMILES): CC(C)C[C@H](NC(=O)CN)C(=O)O [GL, Gly-Leu]

Structure (SMILES): [S]12[Fe]3[S]4[Fe]1[S]1[Fe]2[S]3[Fe]41 [[4Fe-4S] cluster]
cryo-EM structure of the complex (3.2 Å) [3]: The [4Fe-4S] cluster in DppD is coordinated by Cys284, Cys290, Cys297 and Cys315
cryo-EM structure of the complex (3.2 Å) [4]: the [4Fe-4S] cluster in DppF is coordinated by Cys293, Cys299, Cys306 and Cys323
